Structures can show the parent of a compound that is named as a salt.
Target: T1, Calcium sensing receptor (hCaSR) (Homo sapiens, UniProt P41180)
T1 construct: expressed in transfected cells; host or cells: HEK293 (stably transfected)
T1 sequence (P41180 20-1078): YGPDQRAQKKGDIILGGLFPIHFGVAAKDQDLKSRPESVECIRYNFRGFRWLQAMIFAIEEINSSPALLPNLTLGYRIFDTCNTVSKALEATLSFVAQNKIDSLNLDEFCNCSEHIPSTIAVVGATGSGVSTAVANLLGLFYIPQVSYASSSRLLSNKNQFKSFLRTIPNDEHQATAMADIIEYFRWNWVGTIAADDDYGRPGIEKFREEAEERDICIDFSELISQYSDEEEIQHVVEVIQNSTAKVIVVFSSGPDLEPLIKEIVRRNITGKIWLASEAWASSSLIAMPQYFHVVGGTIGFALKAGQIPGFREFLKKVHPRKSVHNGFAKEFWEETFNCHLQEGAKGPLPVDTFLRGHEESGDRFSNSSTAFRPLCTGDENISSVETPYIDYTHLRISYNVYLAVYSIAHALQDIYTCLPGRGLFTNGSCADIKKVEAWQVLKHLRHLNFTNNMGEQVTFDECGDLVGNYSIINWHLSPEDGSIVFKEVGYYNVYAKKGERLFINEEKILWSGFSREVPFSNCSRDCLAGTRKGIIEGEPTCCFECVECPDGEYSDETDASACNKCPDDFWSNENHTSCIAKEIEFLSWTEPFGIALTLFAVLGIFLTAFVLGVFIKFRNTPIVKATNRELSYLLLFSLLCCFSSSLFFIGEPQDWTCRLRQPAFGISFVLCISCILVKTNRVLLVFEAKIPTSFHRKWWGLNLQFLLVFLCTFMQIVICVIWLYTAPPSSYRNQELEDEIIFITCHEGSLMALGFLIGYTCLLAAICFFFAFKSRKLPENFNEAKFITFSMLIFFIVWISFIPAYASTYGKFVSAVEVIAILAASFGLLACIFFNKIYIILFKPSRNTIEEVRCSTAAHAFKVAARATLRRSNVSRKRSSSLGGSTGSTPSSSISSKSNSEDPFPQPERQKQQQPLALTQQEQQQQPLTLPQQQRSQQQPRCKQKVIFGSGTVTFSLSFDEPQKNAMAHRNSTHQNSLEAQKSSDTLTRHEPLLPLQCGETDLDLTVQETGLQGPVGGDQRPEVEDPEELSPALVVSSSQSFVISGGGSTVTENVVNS
Test: In-vitro assay of calcimimetics through modulation of calcium sensing receptor (intracellular calcium increase, FLIPR)
Format: cell-based
Details: stably transfected HEK293 cells expressing hCaSR; Fluo4NW dye; 0.3 mM CaCl2; 8-point assay; read-out: EC50 in range
Protocol: In-Vitro Assay Method of Calcimimetics Through Modulation of Calcium Sensing Receptor (CaSR): The ability of the compounds to modulate Calcium sensing receptor is determined by measuring an increase in intracellular calcium [Ca^2+]i. Stably transfected HEK293 cells expressing hCaSR_pTriEx-3 hygro vector are developed. Cells are grown overnight on a 96-well plate to 80% confluency in Ham's F12 containing 20% FBS at 37° C., 5% CO2. Subsequently, cells are washed extensively with 20 mM HEPES buffer containing 126 mM […], 1 mM MgCl2 and 4 mM KCl to remove serum components that might interfere with the assay. Cells are loaded with calcium sensing Fluo4NW dye in HEPES base buffer containing 0.1% BSA and 1 mg/ml glucose for 30 minutes to measure changes in intracellular calcium. The activities of the compounds are measured in FLIPR using 0.3 mM CaCl2 in 20 mM HEPES base buffer. The effectiveness of the compound to modulate receptor activity is determined by calculating the EC50 responses for that compound in an 8-point assay and plotted using GraphPad Prism 5.

| EC50 [nM] | SMILES |
| --- | --- |
| 50 to 400 | COc1cccc([C@@H](C)NC(C)c2cc(-c3ccc(C(F)(F)F)c(CCC(=O)O)c3)c3ccccc3c2)c1 (stereo partly drawn) [Example 145, 3-(5-(3-(1-(((R)-1-(3-Methoxyphenyl)ethyl)amino)ethyl)naphthalen-1-yl)-2-(trifluoromethyl)phenyl)propanoic acid hydrochloride] |
| < 20 | COc1cccc([C@@H](C)NC(C)c2cc(-c3ccc(C(F)(F)C(=O)O)cc3)c3ccccc3c2)c1 (stereo partly drawn) [Example 135, 2,2-Difluoro-2-(4-(3-(1-(((R)-1-(3-methoxyphenyl)ethyl)amino)ethyl)naphthalen-1-yl)phenyl) acetic acid hydrochloride] |
| 50 to 400 | CC(N[C@H](C)c1cccc(Cl)c1)c1cc(-c2ccc(C(F)(F)F)c(CCC(=O)O)c2)c2ccccc2c1 (stereo partly drawn) [Example 146, 3-(5-(3-(1-(((R)-1-(3-Chlorophenyl)ethyl)amino)ethyl)naphthalen-1-yl)-2-(trifluoromethyl)phenyl)propanoic acid hydrochloride] |
| 50 to 400 | COc1cc([C@@H](C)NC(C)c2cc(-c3ccc(C)c(C(=O)O)c3)c3ccccc3c2)ccc1F (stereo partly drawn) [Example 115, 5-(3-(1-(((R)-1-(4-Fluoro-3-methoxyphenyl)ethyl)amino)ethyl)naphthalen-1-yl)-2-methylbenzoic acid hydrochloride] |
| < 20 | COc1cccc([C@@H](C)NC(C)c2cc(-c3ccc(F)c(C(=O)O)c3)c3ccccc3c2)c1 (stereo partly drawn) [Example 123, 2-Fluoro-5-(3-(1-(((R)-1-(3-methoxyphenyl)ethyl)amino)ethyl)naphthalen-1-yl)benzoic acid hydrochloride] |
| 50 to 400 | CCOc1cccc([C@@H](C)NC(C)c2cc(-c3ccc(C)c(CCC(=O)OC(C)C)c3)c3ccccc3c2)c1 (stereo partly drawn) [Example 154, Isopropyl 3-(5-(3-(1-(((R)-1-(3-ethoxyphenyl)ethyl)amino)ethyl)naphthalen-1-yl)-2-methylphenyl) propanoate hydrochloride] |
| 20 to 50 | CCOc1cccc([C@@H](C)NC(C)c2cc(-c3ccc(C)c(C(=O)O)c3)c3ccccc3c2)c1 (stereo partly drawn) [Example 143, 5-(3-(1-(((R)-1-(3-Ethoxyphenyl)ethyl)amino)ethyl)naphthalen-1-yl)-2-methylbenzoic acid hydrochloride] |
| 50 to 400 | COc1cccc([C@@H](C)NCc2cc(-c3ccc(OC)c(C(=O)O)c3)c3ccccc3c2)c1 [Example 104, (R)-2-Methoxy-5-(3-(((1-(3-methoxyphenyl)ethyl)amino)methyl)naphthalen-1-yl)benzoic acid hydrochloride] |
| 50 to 400 | COc1cccc([C@@H](C)NC(C)c2cc(-c3ccc(C(=O)O)c(C)c3)c3ccccc3c2)c1 (stereo partly drawn) [Example 130, 4-(3-(1-(((R)-1-(3-Methoxyphenyl)ethyl)amino)ethyl)naphthalen-1-yl)-2-methylbenzoic acid hydrochloride] |
| 50 to 400 | COc1cccc([C@@H](C)NC(C)c2cc(-c3ccc(C(F)(F)F)c(C(=O)O)c3)c3ccccc3c2)c1 (stereo partly drawn) [Example 128, 5-(3-(1-(((R)-1-(3-Methoxyphenyl)ethyl)amino)ethyl)naphthalen-1-yl)-2-(trifluoromethyl) benzoic acid hydrochloride] |
| < 20 | COc1ccc(-c2cc(C(C)N[C@H](C)c3cccc(Cl)c3)cc3ccccc23)cc1F (stereo partly drawn) [Example 8, (1R)-1-(3-Chlorophenyl)-N-(1-(4-(3-fluoro-4-methoxyphenyl)naphthalen-2-yl)ethyl)ethanamine hydrochloride] |
| 50 to 400 | CCC(N[C@H](C)c1cccc(Cl)c1)c1cc(-c2ccc(F)c(CCC(=O)O)c2)c2ccccc2c1 (stereo partly drawn) [Example 152, 3-(5-(3-(1-(((R)-1-(3-Chlorophenyl)ethyl)amino)propyl)naphthalen-1-yl)-2-fluorophenyl)propanoic acid hydrochloride] |
| < 20 | COC(=O)c1cc(-c2cc(CN[C@H](C)c3cccc(OC)c3)cc3ccccc23)ccc1F [Example 45, (R)-methyl 2-fluoro-5-(3-(((1-(3-methoxyphenyl)ethyl)amino)methyl)naphthalen-1-yl)benzoate hydrochloride] |

Source: patent US9493396B2, “Substituted naphthalene compounds as calcium sensing receptor modulators” (LUPIN ATLANTIS HOLDINGS SA, priority 2013, dated 2016)
